The text below walks through data of PubChem BioAssay AID1745844 (Carcinogenic Potency Database (CPDB), 2022).

This data set has as its system rodent lifetime carcinogenesis bioassay, tumor incidence TD50. Briefly: chronic cancer bioassays in animals – CPDB, compiled studies (AID 1745844). The note with it: in feed.

The source made the active and inactive calls. No rule for the calls is given here.

As to `CC(=O)[O-].CC(=O)[O-].CCC(=O)c1ccc(F)c([C@@H]2C[C@@H]2NC(=O)Nc2ccc(C#N)cn2)c1O.[Zn+2]`, the TD50 by setting is: (hamster, strain Syrian Golden, females, site: any site (literature study), lesion: several types, types named in the paper, dosed 78 weeks, study length 78 weeks) 177000 mg/kg/day (inactive); (hamster, strain Syrian Golden, males, site: any site (literature study), lesion: several types, types named in the paper, dosed 106 weeks, study length 111 weeks) 54100 mg/kg/day (inactive); (rat, strain MRC, females, site: peripheral nervous system, lesion: one or several types, types not named, dosed 143 weeks, study length 146 weeks) 35400 mg/kg/day (inactive). For the same molecule, the carcinogen call reads like this: (hamster, strain Syrian Golden, females, site: liver, lesion: hemangioma, dosed 78 weeks, study length 78 weeks) “negative (inactive)”; (hamster, strain Syrian Golden, males, site: liver, lesion: hemangioma, dosed 106 weeks, study length 111 weeks) “negative (inactive)”; (rat, strain MRC, females, site: skin, lesion: one or several types, types not named, dosed 143 weeks, study length 146 weeks) “negative (inactive)”; (rat, strain MRC, males, site: any site (literature study), lesion: several types, types named in the paper, dosed 139 weeks, study length 141 weeks) “negative (inactive)”.

In the case of `Clc1cccc(-c2cc(Cl)cc(Cl)c2)c1`, the TD50 is 59.3 mg/kg/day (rat, strain Sprague-Dawley, females, site: liver, lesion: hepatocellular adenoma, dosed 104 weeks, study length 104 weeks); 598 mg/kg/day (rat, strain Sprague-Dawley, females, site: liver, lesion: hepatocellular carcinoma, dosed 104 weeks, study length 104 weeks); 53.9 mg/kg/day (rat, strain Sprague-Dawley, females, site: liver, lesion: several types, types named in the paper, dosed 104 weeks, study length 104 weeks); 872 mg/kg/day (rat, strain Sprague-Dawley, males, site: liver, lesion: several types, types named in the paper, dosed 104 weeks, study length 104 weeks).

In the case of `CC(=O)Nc1cccc2c1Cc1ccccc1-2`, the TD50 is, setting by setting: (rat, strain Buffalo, females, site: adrenal gland, lesion: carcinoma, dosed 47 weeks, study length 88 weeks) 54.8 mg/kg/day; (rat, strain Buffalo, females, site: all sites, lesion: leukemia, indeterminate type, dosed 47 weeks, study length 88 weeks) 54.8 mg/kg/day; (rat, strain Buffalo, females, site: ovary, lesion: granulosa-cell carcinoma, dosed 47 weeks, study length 88 weeks) 54.8 mg/kg/day; (rat, strain Buffalo, females, site: pituitary gland, lesion: adenoma, dosed 47 weeks, study length 88 weeks) 43.5 mg/kg/day; (rat, strain Buffalo, females, site: uterus, lesion: carcinosarcoma, dosed 47 weeks, study length 88 weeks) 54.8 mg/kg/day.

For the molecule `CCn1cc(C(=O)O)c(=O)c2cc3c(cc21)OCO3`, the TD50 runs as follows: (mouse, strain ICR, females, site: liver, lesion: hepatocellular adenoma, dosed 78 weeks, study length 78 weeks) 572 mg/kg/day; (mouse, strain ICR, females, site: lung, lesion: adenoma, dosed 78 weeks, study length 78 weeks) 55.1 mg/kg/day; (rat, strain Wistar, females, site: any site (literature study), lesion: benign tumor, dosed 104 weeks, study length 104 weeks) 589 mg/kg/day; (rat, strain Wistar, females, site: any site (literature study), lesion: malignant tumor, dosed 104 weeks, study length 104 weeks) 1040 mg/kg/day; (rat, strain Wistar, females, site: any site (literature study), lesion: several types, types named in the paper, dosed 104 weeks, study length 104 weeks) 68.5 mg/kg/day; (rat, strain Wistar, females, site: liver, lesion: hepatocellular carcinoma, dosed 104 weeks, study length 104 weeks) 2440 mg/kg/day. The TD50 is 1790 mg/kg/day (rat, strain Wistar, males, site: any site (literature study), lesion: malignant tumor, dosed 104 weeks, study length 104 weeks) and 167 mg/kg/day (rat, strain Wistar, males, site: testis, lesion: Leydig-cell adenoma, dosed 104 weeks, study length 104 weeks).

As to `CC(C)(Oc1ccc(C2CCCc3ccccc32)cc1)C(=O)O` (configuration not stated), the carcinogen call (hamster, strain Syrian, MB strain, males, site: liver, lesion: several types, types named in the paper, dosed 60 weeks, study length 60 weeks) was “negative (inactive)”. Moreover, the TD50 was 22.4 mg/kg/day (rat, strain Fischer 344, males, site: liver, lesion: hepatocellular carcinoma, dosed 108 weeks, study length 108 weeks); 207 mg/kg/day (rat, strain Fischer 344, males, site: pancreas, lesion: acinar-cell adenoma, dosed 108 weeks, study length 108 weeks); 428 mg/kg/day (rat, strain Fischer 344, males, site: pancreas, lesion: acinar-cell carcinoma, dosed 108 weeks, study length 108 weeks); 132 mg/kg/day (rat, strain Fischer 344, males, site: pancreas, lesion: several types, types named in the paper, dosed 108 weeks, study length 108 weeks); 3.51 mg/kg/day (rat, strain Sprague-Dawley, males, site: liver, lesion: several types, types named in the paper, dosed 60 weeks, study length 60 weeks); 55.5 mg/kg/day (rat, strain Wistar, females, site: liver, lesion: hepatocellular adenoma, dosed 70 weeks, study length 70 weeks). Besides, the TD50 reads like this: (rat, strain Wistar, females, site: liver, lesion: hepatocellular carcinoma, dosed 55 weeks, study length 55 weeks) 163 mg/kg/day; (rat, strain Wistar, females, site: liver, lesion: hepatocellular carcinoma, dosed 70 weeks, study length 70 weeks) 92.3 mg/kg/day; (rat, strain Wistar, females, site: liver, lesion: several types, types named in the paper, dosed 55 weeks, study length 55 weeks) 163 mg/kg/day; (rat, strain Wistar, females, site: liver, lesion: several types, types named in the paper, dosed 70 weeks, study length 70 weeks) 36.6 mg/kg/day; (rat, strain Wistar, males, site: any site (literature study), lesion: one or several types, types not named, dosed 59 weeks, study length 59 weeks) 12.3 mg/kg/day; (rat, strain Wistar, males, site: liver, lesion: hepatocellular adenoma, dosed 57 weeks, study length 57 weeks) 38.8 mg/kg/day. The TD50 runs as follows: (rat, strain Wistar, males, site: liver, lesion: hepatocellular adenoma, dosed 59 weeks, study length 59 weeks) 48 mg/kg/day; (rat, strain Wistar, males, site: liver, lesion: hepatocellular carcinoma, dosed 57 weeks, study length 57 weeks) 59.1 mg/kg/day; (rat, strain Wistar, males, site: liver, lesion: hepatocellular carcinoma, dosed 59 weeks, study length 59 weeks) 58.1 mg/kg/day; (rat, strain Wistar, males, site: liver, lesion: several types, types named in the paper, dosed 57 weeks, study length 57 weeks) 19.8 mg/kg/day; (rat, strain Wistar, males, site: liver, lesion: several types, types named in the paper, dosed 59 weeks, study length 59 weeks) 22.1 mg/kg/day.

One may read the TD50 as the dose at which the toxic effect under study appears in half of the subjects.
